The term pEC50 denotes −log10 of the EC50, conventionally taken in molar units. A low value points to a high EC50. Broadly, the pKi is −log10 of the Ki, conventionally taken in molar units.

Molecules are shown by their SMILES. pEC50, pKi: −log10 of the molar value.

The record followed here is patent US11919901B2 (Syndax Pharmaceuticals, Inc., priority 2021, dated 2024).

This test addresses Menin-MLL (Homo sapiens (Human), UniProt O00255). In words: Determination of binding constants (Ki) to Menin-MLL (HTRF). The settings on record: HTRF, 0.25 nM H-FL-Menin, 3.2 nM FITC-MLL-4-43, 24 hr incubation; for pKi: read-out: Menin-MLL Ki HTRF Assay: Ki. (In general: Time-resolved FRET reads energy transfer from a long-lived donor to a nearby acceptor.)

Menin-MLL, sequence (O00255 whole entry): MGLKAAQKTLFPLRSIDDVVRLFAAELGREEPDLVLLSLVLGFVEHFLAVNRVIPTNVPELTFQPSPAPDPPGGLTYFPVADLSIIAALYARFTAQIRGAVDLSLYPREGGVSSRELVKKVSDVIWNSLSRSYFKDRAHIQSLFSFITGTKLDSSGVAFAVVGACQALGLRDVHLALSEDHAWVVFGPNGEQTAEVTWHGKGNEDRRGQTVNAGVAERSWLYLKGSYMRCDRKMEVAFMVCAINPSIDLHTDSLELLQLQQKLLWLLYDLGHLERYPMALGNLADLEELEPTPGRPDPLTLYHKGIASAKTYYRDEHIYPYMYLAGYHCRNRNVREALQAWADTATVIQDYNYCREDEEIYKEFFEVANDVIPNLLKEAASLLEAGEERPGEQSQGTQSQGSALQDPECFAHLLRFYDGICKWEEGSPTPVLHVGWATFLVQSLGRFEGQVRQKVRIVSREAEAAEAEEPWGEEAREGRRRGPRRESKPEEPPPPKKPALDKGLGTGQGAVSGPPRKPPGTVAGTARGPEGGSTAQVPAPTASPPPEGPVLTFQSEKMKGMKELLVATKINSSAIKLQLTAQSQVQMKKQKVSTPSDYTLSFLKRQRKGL

As to `CCN(C(=O)c1cc(F)ccc1Oc1cncnc1N1CC2(CCN(C[C@@H]3CC[C@@H](NS(=O)(=O)c4ccc(Cl)cc4)CO3)CC2)C1)C(C)C` [Compound 61, 2-((4-(7-(((2S,5R)-5-((4-Chlorophenyl)sulfonamido)tetrahydro-2H-pyran-2-yl)methyl)-2,7-diazaspiro[3.5]nonan-2-yl)pyrimidin-5-yl)oxy)-N-ethyl-5-fluoro-N-isopropylbenzamide], the pEC50 is > 7.30 and the pKi is > 9.00.

For the compound `CCN(C(=O)c1cc(F)ccc1Oc1cncnc1N1CC2(CCN(C[C@@H]3CC[C@@H](NS(=O)(=O)C4CCOCC4)CO3)CC2)C1)C(C)C` [Compound 67, N-Ethyl-5-fluoro-N-isopropyl-2-((4-(7-(((2S,5R)-5-((tetrahydro-2H-pyran)-4-sulfonamido)tetrahydro-2H-pyran-2-yl)methyl)-2,7-diazaspiro[3.5]nonan-2-yl)pyrimidin-5-yl)oxy)benzamide], the pEC50 is > 7.30 and the pKi was > 9.00.

`CCN(C(=O)c1cc(F)ccc1Oc1cncnc1N1CC2(CCN(C[C@@H]3CC[C@@H](NS(=O)(=O)N4CC(F)(F)C4)CO3)CC2)C1)C(C)C` [Compound 70, 2-((4-(7-(((2S,5R)-5-((3,3-Difluoroazetidine)-1-sulfonamido)tetrahydro-2H-pyran-2-yl)methyl)-2,7-diazaspiro[3.5]nonan-2-yl)pyrimidin-5-yl)oxy)-N-ethyl-5-fluoro-N-isopropylbenzamide]: the pEC50 is > 7.30 and the negative-log Ki (pKi) is > 9.00.

As for `CCN(C(=O)c1cc(F)ccc1Oc1cncnc1N1CC2(CCN(C[C@@H]3CC[C@@H](NS(N)(=O)=O)CO3)CC2)C1)C(C)C` [Compound 73, N-Ethyl-5-fluoro-N-isopropyl-2-((4-(7-(((2S,5R)-5-(sulfamoylamino)tetrahydro-2H-pyran-2-yl)methyl)-2,7-diazaspiro[3.5]nonan-2-yl)pyrimidin-5-yl)oxy)benzamide], the pKi was > 9.00.

As to `CCN(C(=O)c1cc(F)ccc1Oc1cncnc1N1CC2(CCN(C[C@@H]3CC[C@@H](NS(=O)(=O)c4ccc(=O)n(C)c4)CO3)CC2)C1)C(C)C` [Compound 74, N-Ethyl-5-fluoro-N-isopropyl-2-((4-(7-(((2S,5R)-5-((1-methyl-6-oxo-1,6-dihydropyridine)-3-sulfonamido)tetrahydro-2H-pyran-2-yl)methyl)-2,7-diazaspiro[3.5]nonan-2-yl)pyrimidin-5-yl)oxy)benzamide], the negative-log Ki (pKi) is > 9.00.

As for `CC(C)N(C(=O)c1cc(F)ccc1Oc1cncnc1N1CC2(CCN(C[C@@H]3CC[C@@H](NS(=O)(=O)N(C)C)CO3)CC2)C1)C(C)C` [Compound 77, 2-((4-(7-(((2S,5R)-5-((N,N-Dimethylsulfamoyl)amino)tetrahydro-2H-pyran-2-yl)methyl)-2,7-diazaspiro[3.5]nonan-2-yl)pyrimidin-5-yl)oxy)-5-fluoro-N,N-diisopropylbenzamide], the pEC50 was > 7.30 and the pKi was > 9.00.

Consider `CC(C)N(C(=O)c1cc(F)ccc1Oc1cncnc1N1CC2(CCN(C[C@@H]3CC[C@@H](NS(=O)(=O)C4CCOCC4)CO3)CC2)C1)C(C)C` [Compound 79], for which the pEC50 is > 7.30 and the negative logarithm of the Ki (pKi) was > 9.00.

As to `CC(C)N(C(=O)c1cc(F)ccc1Oc1cncnc1N1CC2(CCN(C[C@@H]3CC[C@@H](NS(=O)(=O)c4ccc(=O)n(C)c4)CO3)CC2)C1)C(C)C` [Compound 92, 5-Fluoro-N,N-diisopropyl-2-((4-(7-(((2S,5R)-5-((1-methyl-6-oxo-1,6-dihydropyridine)-3-sulfonamido)tetrahydro-2H-pyran-2-yl)methyl)-2,7-diazaspiro[3.5]nonan-2-yl)pyrimidin-5-yl)oxy)benzamide], the pKi is > 9.00.

Turning to `CC(C)N(CC(F)F)C(=O)c1cc(F)ccc1Oc1cncnc1N1CC2(CCN(C[C@@H]3CC[C@@H](NS(C)(=O)=O)CO3)CC2)C1` [Compound 96, N-(2,2-Difluoroethyl)-5-fluoro-N-isopropyl-2-((4-(7-(((2S,5R)-5-(methylsulfonamido)tetrahydro-2H-pyran-2-yl)methyl)-2,7-diazaspiro[3.5]nonan-2-yl)pyrimidin-5-yl)oxy)benzamide], the pEC50 was > 7.30 and the pKi is > 9.00.

Regarding `CC(C)N(CC(F)F)C(=O)c1cc(F)ccc1Oc1cncnc1N1CC2(CCN(C[C@@H]3CC[C@@H](NS(=O)(=O)C4CCOCC4)CO3)CC2)C1` [Compound 98, N-(2,2-Difluoroethyl)-5-fluoro-N-isopropyl-2-((4-(7-(((2S,5R)-5-((tetrahydro-2H-pyran)-4-sulfonamido)tetrahydro-2H-pyran-2-yl)methyl)-2,7-diazaspiro[3.5]nonan-2-yl)pyrimidin-5-yl)oxy)benzamide], the pEC50 was > 7.30 and the pKi was > 9.00.

As for `CCn1cc(S(=O)(=O)N[C@@H]2CC[C@@H](CN3CCC4(CC3)CN(c3ncncc3Oc3ccc(F)cc3C(=O)N(CC(F)F)C(C)C)C4)OC2)cn1` [Compound 106, N-(2,2-Difluoroethyl)-2-((4-(7-(((2S,5R)-5-((1-ethyl-1H-pyrazole)-4-sulfonamido)tetrahydro-2H-pyran-2-yl)methyl)-2,7-diazaspiro[3.5]nonan-2-yl)pyrimidin-5-yl)oxy)-5-fluoro-N-isopropylbenzamide], the pKi was > 9.00.

With `CC(C)N(CC(F)(F)F)C(=O)c1cc(F)ccc1Oc1cncnc1N1CC2(CCN(C[C@@H]3CC[C@@H](NS(=O)(=O)N4CCOCC4)CO3)CC2)C1` [Compound 108, 5-Fluoro-N-isopropyl-2-((4-(7-(((2S,5R)-5-(morpholine-4-sulfonamido)tetrahydro-2H-pyran-2-yl)methyl)-2,7-diazaspiro[3.5]nonan-2-yl)pyrimidin-5-yl)oxy)-N-(2,2,2-trifluoroethyl)benzamide], the negative-log EC50 (pEC50) is > 7.30 and the negative-log Ki (pKi) was > 9.00.

For `CC(C)N(CC(F)(F)F)C(=O)c1cc(F)ccc1Oc1cncnc1N1CC2(CCN(C[C@@H]3CC[C@@H](NS(=O)(=O)C(C)C)CO3)CC2)C1` [Compound 109, 5-Fluoro-N-isopropyl-2-((4-(7-(((2S,5R)-5-((1-methylethyl)sulfonamido)tetrahydro-2H-pyran-2-yl)methyl)-2,7-diazaspiro[3.5]nonan-2-yl)pyrimidin-5-yl)oxy)-N-(2,2,2-trifluoroethyl)benzamide], the negative logarithm of the EC50 (pEC50) was > 7.30 and the negative logarithm of the Ki (pKi) is > 9.00.

In the case of `CC(C)N(C(=O)c1cc(F)ccc1Oc1cncnc1N1CC2(CCN(C[C@@H]3CC[C@@H](NS(=O)(=O)C(C)C)CO3)CC2)C1)C1CC(F)(F)C1` [Compound 110, N-(3,3-Difluorocyclobutyl)-5-fluoro-N-isopropyl-2-((4-(7-(((2S,5R)-5-((1-methylethyl)sulfonamido)tetrahydro-2H-pyran-2-yl)methyl)-2,7-diazaspiro[3.5]nonan-2-yl)pyrimidin-5-yl)oxy)benzamide], the pEC50 was > 7.30 and the pKi is > 9.00.

On to `CC(C)N(C(=O)c1cc(F)ccc1Oc1cncnc1N1CC2(CCN(C[C@@H]3CC[C@@H](NS(C)(=O)=O)CO3)CC2)C1)C1CC(F)(F)C1` [Compound 112, N-(3,3-Difluorocyclobutyl)-5-fluoro-N-isopropyl-2-((4-(7-(((2S,5R)-5-(methylsulfonamido)tetrahydro-2H-pyran-2-yl)methyl)-2,7-diazaspiro[3.5]nonan-2-yl)pyrimidin-5-yl)oxy)benzamide], for which the pEC50 was > 7.30 and the pKi was > 9.00.
